Measurements from article PMC6109062, “The dual methyltransferase METTL13 targets N terminus and Lys55 of eEF1A and modulates codon-specific translation rates” (Nature Communications, 2018).

Target: T1, MT13-N (N-terminal methyltransferase domain of METTL13) (Homo sapiens, UniProt Q8N6R0)
T1 construct: N-terminal methyltransferase domain, His6-tagged, E. coli
T1 sequence (Q8N6R0 1-245 limits assumed): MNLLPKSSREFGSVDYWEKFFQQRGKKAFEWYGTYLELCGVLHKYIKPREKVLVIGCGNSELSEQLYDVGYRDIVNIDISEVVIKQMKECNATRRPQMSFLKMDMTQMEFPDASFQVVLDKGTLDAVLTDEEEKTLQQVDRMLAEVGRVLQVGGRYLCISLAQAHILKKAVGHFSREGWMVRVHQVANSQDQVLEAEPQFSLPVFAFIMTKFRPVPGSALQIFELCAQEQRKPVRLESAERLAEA
Test: [3H]AdoMet methyl transfer to eEF1A1, fluorography; MS
Format: biochemical
Settings: co-substrate eEF1A1 (Lys55), no nucleotide added; pH 7.4, 1 mM MgCl2, 30 °C; labelled compound

With `C[S+](CC[C@H](N)C(=O)O)C[C@H]1O[C@@H](n2cnc3c(N)ncnc32)[C@H](O)[C@@H]1O` (stereo partly shown) [AdoMet] the “[3H]AdoMet methyl transfer to eEF1A1, fluorography; MS” value was “Recombinant eEF1A was incubated with MT13-N in the presence of AdoMet”.
